{
  "source": "patent US20240415808A1",
  "about": "“Dosage Regimen for Fexuprazan Injection Composition” (Daewoong Pharmaceutical Co., Ltd., priority 2021, published 2024)",
  "test_system": "indomethacin-induced bleeding gastric ulcer",
  "test": "indomethacin-induced bleeding gastric ulcer model using male rats",
  "format": "in vivo, rat",
  "conditions": "1 mg/kg single dose tail vein, mean ± SD",
  "method": "In order to evaluate the efficacy of fexuprazan against bleeding gastric ulcers, an indomethacin-induced bleeding gastric ulcer model using male rats was used.\nSpecifically, the previously prepared 1-(5-(2,4-difluorophenyl)-1-((3-fluorophenyl)sulfonyl)-4-methoxy-1H-pyrrol-3-yl)-N-methylmethanamine (hereinafter referred to as ‘fexuprazan’) hydrochloride was dissolved in a solution containing 30 wt. % of polyethylene glycol (Polyethylene Glycol 400) polymer in physiological saline. The concentration was adjusted so that 0, 0.1, 0.5, 1, 2 mg/kg based on fexuprazan weight could be administered to each test animal in a liquid volume of 1 mL/kg, and then each test animal was administered through the tail vein as a single dose. In addition, 1 mg/kg of esomeprazole magnesium trihydrate, which is a positive control, based on esomeprazole weight was administered as a single dose through the tail vein in test animals. After 30 minutes, 80 mg/kg of indomethacin was orally administered as a single dose to each test animal to induce gastric bleeding and ulceration. An autopsy was performed 5 hours after administration of indomethacin, and the stomach was removed. Then, the ulcer index (%) was measured using an image program (Leica Application Suite V4), and gastric hemorrhage and erosion state were evaluated through histopathological examination.",
  "data": [
    {"compound": "COc1ccc2nc([S@@+]([O-])Cc3ncc(C)c(OC)c3C)[nH]c2c1", "note": "[Esomeprazole, esomeprazole magnesium trihydrate, reference compound]", "values": [
      {"measurement": "Ulcer index (%)", "setting": "30 min before indomethacin 80 mg/kg oral, autopsy 5 h", "value": "6.1 ± 2.6", "unit": "%"},
      {"measurement": "Gastric erosion state", "setting": "histopathological examination", "value": "2.0 ± 1.8"},
      {"measurement": "Gastric hemorrhage state", "setting": "histopathological examination", "value": "1.3 ± 1.6^"}
    ]}
  ]
}
